Results as given in patent publication US9198918B2, “Benzoxazepin PI3K inhibitor compounds and methods of use” (Genentech, Inc., priority 2009, dated 2015).

Legend:
[1] = system: A2058; experiment: CellTiter-Glo cell proliferation assay, A2058; assay type: cell-based; conditions: Homo sapiens, Melanoma, mutation status PTEN
Procedure: (§1) Efficacy of Formula I compounds was measured by a cell proliferation assay employing the following protocol (Promega Corp. Technical Bulletin TB288; Mendoza et al (2002) Cancer Res. 62:5485-5488):
(§2) 1. An aliquot of 100 μl of cell culture containing about 104 cells (PC3, Detroit562, or MDAMB361.1) in medium was deposited in each well of a 384-well, opaque-walled plate.
(§3) 2. Control wells were prepared containing medium and without cells.
(§4) 3. The compound was added to the experimental wells and incubated for 3-5 days.
(§5) 4. The plates were equilibrated to room temperature for approximately 30 minutes.
(§6) 5. A volume of CellTiter-Glo Reagent equal to the volume of cell culture medium present in each well was added.
6. […]
(§7) 7. The plate was incubated at room temperature for 10 minutes to stabilize the luminescence signal.
(§8) 8. Luminescence was recorded and reported in graphs as RLU=relative luminescence units.
(§9) Alternatively, cells were seeded at optimal density in a 96 well plate and incubated for 4 days in the presence of test compound. Alamar Blue™ was subsequently added to the assay medium, and cells were incubated for 6 hr before reading at 544 nm excitation, 590 nm emission. EC50 values were calculated using a sigmoidal dose response curve fit. […]
(§10) The anti-proliferative effects of Formula I exemplary compounds were measured by the CellTiter-Glo® Assay against various tumor cell lines, including the following: […]

[2] = system: CAL51; experiment: CellTiter-Glo cell proliferation assay, CAL51; assay type: cell-based; conditions: Homo sapiens, CAL-51, Breast, mutation status PI3K/PTEN
Procedure: as §1, §2, §3, §4, §5, §6
6. […]
as §7, §8, §9, §10

[3] = system: IGROV1; experiment: CellTiter-Glo cell proliferation assay, IGROV1; assay type: cell-based; conditions: Homo sapiens, IGROV-1, Ovarian, mutation status PI3K
Procedure: as §1, §2, §3, §4, §5, §6
6. […]
as §7, §8, §9, §10

[4] = system: MDA-MB-231; experiment: CellTiter-Glo cell proliferation assay, MDA-MB-231; assay type: cell-based; conditions: Homo sapiens, Breast, mutation status K-RAS
Procedure: as §1, §2, §3, §4, §5, §6
6. […]
as §7, §8, §9, §10

[5] = system: MDA-MB-361.1; experiment: CellTiter-Glo cell proliferation assay, MDA-MB-361.1; assay type: cell-based; conditions: Breast, mutation status PI3K
Procedure: as §1, §2, §3, §4, §5, §6
(§11) 6. The contents were mixed for 2 minutes on an orbital shaker to induce cell lysis.
as §7, §8
(§12) Alternatively, cells were seeded at optimal density in a 96 well plate and incubated for 4 days in the presence of test compound. Alamar Blue™ was subsequently added to the assay medium, and cells were incubated for 6 hr before reading at 544 nm excitation, 590 nm emission. EC50 values were calculated using a sigmoidal dose response curve fit. The term EC50 refers to the half maximal effective concentration and is the concentration at which a drug induces a response halfway between the baseline and maximum after some specified exposure time. It is commonly used as a measure of drug potency.
as §10

[6] = system: RKO; experiment: CellTiter-Glo cell proliferation assay, RKO; assay type: cell-based; conditions: Homo sapiens, Colon, mutation status PI3K
Procedure: as §1, §2, §3, §4, §5, §6
6. […]
as §7, §8, §9, §10

[7] = system: LN229; experiment: CellTiter-Glo cell proliferation assay, LN229; assay type: cell-based; conditions: Homo sapiens, LN-229, Glioma, mutation status PI3K
Procedure: as §1, §2, §3, §4, §5, §6
6. […]
as §7, §8, §9, §10

[8] = system: U87MG; experiment: CellTiter-Glo cell proliferation assay, U87MG; assay type: cell-based; conditions: Homo sapiens, U-87 MG, Glioma, mutation status PTEN
Procedure: as §1, §2, §3, §4, §5, §6
6. […]
as §7, §8, §9, §10

[9] = system: 537MEL; experiment: CellTiter-Glo cell proliferation assay, 537MEL; assay type: cell-based; conditions: Homo sapiens, Melanoma, mutation status PTEN
Procedure: as §1, §2, §3, §4, §5, §6
6. […]
as §7, §8, §9, §10

[10] = system: Colo205; experiment: CellTiter-Glo cell proliferation assay, Colo205; assay type: cell-based; conditions: Homo sapiens, COLO 205, Colon, mutation status B-Raf
Procedure: as §1, §2, §3, §4, §5, §6
6. […]
as §7, §8, §9, §10

[11] = system: AU565; experiment: CellTiter-Glo cell proliferation assay, AU565; assay type: cell-based; conditions: Homo sapiens, Breast, mutation status WT
Procedure: as §1, §2, §3, §4, §5, §6, §11, §7, §8, §12, §10

[12] = system: EFM19-2A; experiment: CellTiter-Glo cell proliferation assay, EFM19-2A; assay type: cell-based; conditions: EFM-192A, Breast, mutation status WT
Procedure: as §1, §2, §3, §4, §5, §6
6. […]
as §7, §8, §9, §10

[13] = system: H1703; experiment: CellTiter-Glo cell proliferation assay, H1703; assay type: cell-based; conditions: Homo sapiens, NCI-H1703, Lung(NSCLC), mutation status WT
Procedure: as §1, §2, §3, §4, §5, §6
6. […]
as §7, §8, §9, §10

[14] = biological target: T1, PI3K alpha (p110 alpha) (Homo sapiens, UniProt P42336); experiment: PI3K p110α (alpha) binding assay (Example 901); conditions: read-out: IC50, inhibition of PI3K alpha (binding to p110 alpha)
T1 construct: purchased Upstate Cell Signaling Solutions, Charlottesville, Va
T1 sequence (P42336 whole entry): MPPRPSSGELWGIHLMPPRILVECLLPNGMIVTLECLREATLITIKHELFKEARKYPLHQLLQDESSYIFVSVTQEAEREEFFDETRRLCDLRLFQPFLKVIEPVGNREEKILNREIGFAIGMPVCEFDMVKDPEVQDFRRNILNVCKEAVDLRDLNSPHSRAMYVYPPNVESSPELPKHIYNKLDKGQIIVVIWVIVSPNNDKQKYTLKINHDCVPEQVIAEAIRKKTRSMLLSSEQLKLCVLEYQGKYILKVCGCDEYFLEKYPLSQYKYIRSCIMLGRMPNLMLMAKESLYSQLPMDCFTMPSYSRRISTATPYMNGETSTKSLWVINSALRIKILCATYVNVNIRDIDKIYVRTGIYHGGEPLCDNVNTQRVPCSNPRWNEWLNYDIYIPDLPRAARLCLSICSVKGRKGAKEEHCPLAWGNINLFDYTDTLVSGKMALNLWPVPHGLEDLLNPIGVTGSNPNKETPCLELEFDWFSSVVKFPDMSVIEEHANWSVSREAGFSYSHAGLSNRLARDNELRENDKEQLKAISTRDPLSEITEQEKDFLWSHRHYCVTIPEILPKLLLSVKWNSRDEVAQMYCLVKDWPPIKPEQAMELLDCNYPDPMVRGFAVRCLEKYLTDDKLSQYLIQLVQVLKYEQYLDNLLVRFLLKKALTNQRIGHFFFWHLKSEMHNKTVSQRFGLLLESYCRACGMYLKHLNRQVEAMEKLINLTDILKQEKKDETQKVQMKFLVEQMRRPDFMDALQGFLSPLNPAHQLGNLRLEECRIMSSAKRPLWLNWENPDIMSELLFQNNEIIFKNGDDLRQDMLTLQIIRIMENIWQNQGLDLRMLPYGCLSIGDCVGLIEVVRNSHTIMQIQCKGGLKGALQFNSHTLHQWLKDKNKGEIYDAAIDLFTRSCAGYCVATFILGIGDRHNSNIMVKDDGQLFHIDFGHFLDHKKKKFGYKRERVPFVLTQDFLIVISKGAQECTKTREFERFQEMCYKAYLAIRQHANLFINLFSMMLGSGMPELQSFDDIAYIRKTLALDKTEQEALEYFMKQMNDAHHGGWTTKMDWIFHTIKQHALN
T1 sequence (P27986 whole entry partner): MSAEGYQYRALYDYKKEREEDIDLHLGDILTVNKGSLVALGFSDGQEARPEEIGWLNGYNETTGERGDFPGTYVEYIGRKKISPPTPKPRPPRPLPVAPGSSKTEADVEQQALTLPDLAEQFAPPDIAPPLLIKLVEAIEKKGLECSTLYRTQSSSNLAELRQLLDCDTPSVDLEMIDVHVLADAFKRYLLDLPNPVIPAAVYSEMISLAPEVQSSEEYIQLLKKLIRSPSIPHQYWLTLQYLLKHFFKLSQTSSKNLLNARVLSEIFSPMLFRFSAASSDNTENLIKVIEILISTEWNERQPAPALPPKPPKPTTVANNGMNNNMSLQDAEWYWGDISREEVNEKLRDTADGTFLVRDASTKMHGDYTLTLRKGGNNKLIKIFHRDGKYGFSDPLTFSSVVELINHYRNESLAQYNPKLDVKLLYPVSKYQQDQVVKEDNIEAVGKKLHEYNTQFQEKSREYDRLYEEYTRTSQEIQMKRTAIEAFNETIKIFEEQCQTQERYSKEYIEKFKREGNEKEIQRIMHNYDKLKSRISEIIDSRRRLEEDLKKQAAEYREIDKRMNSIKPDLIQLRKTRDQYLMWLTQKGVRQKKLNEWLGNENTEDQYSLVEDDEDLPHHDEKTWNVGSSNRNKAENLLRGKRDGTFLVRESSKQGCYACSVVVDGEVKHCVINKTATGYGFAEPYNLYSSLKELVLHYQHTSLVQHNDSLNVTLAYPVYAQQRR
Excerpt: Determination of the PI3 kinase activity of a Formula I compound is possible by a number of direct and indirect detection methods.

[15] = system: H2122; experiment: CellTiter-Glo cell proliferation assay, H2122; assay type: cell-based; conditions: Homo sapiens, NCI-H2122, Lung(NSCLC), mutation status K-RAS
Procedure: as §1, §2, §3, §4, §5, §6, §11, §7, §8, §12, §10

[16] = system: CAL120; experiment: CellTiter-Glo cell proliferation assay, CAL120; assay type: cell-based; conditions: Homo sapiens, CAL-120, Breast, mutation status WT
Procedure: as §1, §2, §3, §4, §5, §6
6. […]
as §7, §8, §9, §10

[17] = system: MCF7; experiment: CellTiter-Glo cell proliferation assay, MCF7; assay type: cell-based; conditions: Homo sapiens, Breast, mutation status PI3K
Procedure: as §1, §2, §3, §4, §5, §6
6. […]
as §7, §8, §9, §10

[18] = system: HCT116; experiment: CellTiter-Glo cell proliferation assay, HCT116; assay type: cell-based; conditions: Homo sapiens, HCT-116, Colon, mutation status PI3K/KRAS
Procedure: as §1, §2, §3, §4, §5, §6
6. […]
as §7, §8, §9, §10

[19] = system: MFM223; experiment: CellTiter-Glo cell proliferation assay, MFM223; assay type: cell-based; conditions: Homo sapiens, MFM-223, Breast, mutation status PI3K
Procedure: as §1, §2, §3, §4, §5, §6, §11, §7, §8, §12, §10

[20] = system: HCC1954; experiment: CellTiter-Glo cell proliferation assay, HCC1954; assay type: cell-based; conditions: Homo sapiens, Breast, mutation status PI3K
Procedure: as §1, §2, §3, §4, §5, §6, §11, §7, §8, §12, §10

[21] = system: SKBR3; experiment: CellTiter-Glo cell proliferation assay, SKBR3; assay type: cell-based; conditions: Homo sapiens, SK-BR-3, Breast, mutation status WT
Procedure: as §1, §2, §3, §4, §5, §6
6. […]
as §7, §8, §9, §10

[22] = system: TOV21GX1; experiment: CellTiter-Glo cell proliferation assay, TOV21GX1; assay type: cell-based; conditions: Ovarian, mutation status PI3K/PTEN
Procedure: as §1, §2, §3, §4, §5, §6
6. […]
as §7, §8, §9, §10

[23] = system: KPL4; experiment: CellTiter-Glo cell proliferation assay, KPL4; assay type: cell-based; conditions: Breast, mutation status PI3K
Procedure: as §1, §2, §3, §4, §5, §6, §11, §7, §8, §12, §10

[24] = system: T47D; experiment: CellTiter-Glo cell proliferation assay, T47D; assay type: cell-based; conditions: Homo sapiens, Breast, mutation status PI3K
Procedure: as §1, §2, §3, §4, §5, §6, §11, §7, §8, §12, §10

[25] = system: PC3; experiment: CellTiter-Glo cell proliferation assay, PC3; assay type: cell-based; conditions: Homo sapiens, PC-3, Prostate, mutation status PTEN
Procedure: as §1, §2, §3, §4, §5, §6, §11, §7, §8, §12, §10

[26] = system: EVSA-T; experiment: CellTiter-Glo cell proliferation assay, EVSA-T; assay type: cell-based; conditions: Homo sapiens, Breast, mutation status PTEN
Procedure: as §1, §2, §3, §4, §5, §6, §11, §7, §8, §12, §10

[27] = system: A375; experiment: CellTiter-Glo cell proliferation assay, A375; assay type: cell-based; conditions: Homo sapiens, A-375, Melanoma, mutation status B-Raf
Procedure: as §1, §2, §3, §4, §5, §6
6. […]
as §7, §8, §9, §10

## CC(C)n1ncnc1-c1cn2c(n1)-c1ccc(-c3cnn(CC(C)(C)O)c3)cc1OCC2 [compound 180, 1-(4-(2-(1-isopropyl-1H-1,2,4-triazol-5-yl)-5,6-dihydrobenzo[f]imidazo[1,2-d][1,4]oxazepin-9-yl)-1H-pyrazol-1-yl)-2-methylpropan-2-ol]
[1]
  EC50: ≥ 10000 nM
[2]
  EC50: 672 nM
[3]
  EC50: 60 nM
[4]
  EC50: ≥ 10000 nM
[5]
  EC50: 214 nM
[6]
  EC50: 2500 nM
[7]
  EC50: 869 nM
[8]
  EC50: 787 nM
[9]
  EC50: 2430 nM
[10]
  EC50: 259 nM
[11]
  EC50: 230 nM
[12]
  EC50: 146 nM
[13]
  EC50: 225 nM
[14]
  IC50: 0.18 nM
[15]
  EC50: 515 nM
[16]
  EC50: 2120 nM
[17]
  EC50: 121 nM
[18]
  EC50: 1020 nM
[19]
  EC50: 439 nM
[20]
  EC50: 168 nM
[21]
  EC50: 144 nM
[22]
  EC50: 3590 nM
[23]
  EC50: 39 nM
[24]
  EC50: 123 nM
[25]
  EC50: 769 nM
[26]
  EC50: 2040 nM
[27]
  EC50: ≥ 10000 nM
